Literature values, collected in publication PMC9318694 (Molecules, 2022).
Counter-ions that a name gives are not always drawn.

Biological target: D2R (Homo sapiens, UniProt P14416)
Conditions: Table S1; data set of actives, radio-ligand binding assays; ref ChEMBL, [50]-[70]; read-out: KI; cited from earlier work

Sequence of D2R (P14416 whole entry): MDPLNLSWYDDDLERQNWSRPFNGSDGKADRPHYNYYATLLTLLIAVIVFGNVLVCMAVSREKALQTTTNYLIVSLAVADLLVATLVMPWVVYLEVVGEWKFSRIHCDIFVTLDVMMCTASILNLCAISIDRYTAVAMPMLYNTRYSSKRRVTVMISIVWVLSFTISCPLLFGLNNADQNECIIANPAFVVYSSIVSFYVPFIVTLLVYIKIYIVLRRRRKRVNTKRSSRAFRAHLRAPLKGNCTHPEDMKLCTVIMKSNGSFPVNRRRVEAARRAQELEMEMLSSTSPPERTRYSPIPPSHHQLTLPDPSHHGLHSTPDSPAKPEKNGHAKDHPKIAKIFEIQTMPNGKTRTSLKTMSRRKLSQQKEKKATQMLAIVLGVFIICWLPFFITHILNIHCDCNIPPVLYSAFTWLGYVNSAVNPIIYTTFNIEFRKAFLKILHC

Point of comparison: O=C1CCc2ccc(OCCCCN3CCCN(c4ccc(O)c5[nH]c(=O)ccc45)CC3)cc2N1 [SC52, 8-hydroxy-5-(4-(4-((2-oxo-1,2,3,4-tetrahydroquinolin-7-yl)oxy)butyl)-1,4-diazepan-1-yl)quinolin-2(1H)-one], Ki 0.0016 µM. Against it:
- Cc1cc(C)c2c(N)c(C(=O)NCCCCCN3CCN(c4cccc(Cl)c4Cl)CC3)sc2n1 [SC29, 3-amino-N-(5-(4-(2,3-dichlorophenyl)piperazin-1-yl)pentyl)-4,6-dimethylthieno[2,3-b]pyridine-2-carboxamide] — 7-fold higher, 0.0112 µM
- CN[C@@H]1Cc2cccc3c2n(c(=O)n3CCCCCCCCCCCCOc2ccc3c(c2)NC(=O)CC3)C1 [SC51, (R)-5-(methylamino)-1-(12-((2-oxo-1,2,3,4-tetrahydroquinolin-7-yl)oxy)dodecyl)-5,6-dihydro-4H-imidazo[4,5,1-ij]quinolin-2(1H)-one] — 180-fold higher, 0.284 µM
- CCCCn1cc(CCCOc2ccc(C(=O)NCCCCN(CCC)CCc3ccc(O)c4[nH]c(=O)ccc34)cc2OC)nn1 [SC36, 4-(3-(1-butyl-1H-1,2,3-triazol-4-yl)propoxy)-N-(4-((2-(8-hydroxy-2-oxo-1,2-dihydroquinolin-5-yl)ethyl)(propyl)amino)butyl)-3-methoxybenzamide] — 15-fold higher, 0.024 µM
- CCCN(CCCCNC(=O)c1ccc(OCCCc2cn(CCCCCCCCn3cc(CCCOc4ccc(C(=O)NCCCCN(CCC)C5Cc6ccccc6C5)cc4OC)nn3)nn2)c(OC)c1)C1Cc2ccccc2C1 [SC2, 4,4'-(((octane-1,8-diylbis(1H-1,2,3-triazole-1,4-diyl))bis(propane-3,1-diyl))bis(oxy))bis(N-(4-((2,3-dihydro-1H-inden-2-yl)(propyl)amino)butyl)-3-methoxybenzamide)] — 10-fold higher, 0.016 µM
- CN[C@@H]1Cc2cccc3c2n(c(=O)n3CCOCCOCCOCCCCc2ccccc2)C1 [SC45, (R)-5-(methylamino)-1-(2-(2-(2-(4-phenylbutoxy)ethoxy)ethoxy)ethyl)-5,6-dihydro-4H-imidazo[4,5,1-ij]quinolin-2(1H)-one] — 22-fold higher, 0.0347 µM
- c1cc2c3c(c[nH]c3c1)CC1CN(CC3CCCCC3)CCN21 (stereo not drawn) [SC26, 8-(cyclohexylmethyl)-6,6a,7,8,9,10-hexahydro-4H-pyrazino[1,2-a]pyrrolo[4,3,2-de]quinoline] — 34-fold higher, 0.0537 µM
- CCCn1c(=O)n2c3c(cccc31)C[C@@H](NC)C2 [SC40, (R)-5-(methylamino)-1-propyl-5,6-dihydro-4H-imidazo[4,5,1-ij]quinolin-2(1H)-one] — 8.2-fold higher, 0.0132 µM
- Oc1ccc2c(c1)O[C@@H](CNCCN1CCN(c3ccc(OCCF)cc3)CC1)CC2 [SC23, (R)-2-(((2-(4-(4-(2-fluoroethoxy)phenyl)piperazin-1-yl)ethyl)amino)methyl)chroman-7-ol] — 4.2-fold higher, 0.00667 µM
- CN[C@@H]1Cc2cccc3c2n(c(=O)n3CCOCCOCCOCCOc2ccc3c(c2)NC(=O)CC3)C1 [SC48, (R)-5-(methylamino)-1-(2-(2-(2-(2-((2-oxo-1,2,3,4-tetrahydroquinolin-7-yl)oxy)ethoxy)ethoxy)ethoxy)ethyl)-5,6-dihydro-4H-imidazo[4,5,1-ij]quinolin-2(1H)-one] — 190-fold higher, 0.306 µM

Same assay, conditions: Table S2; data set of inactives, radio-ligand binding (RLB) assays; ref ChEMBL, [71]-[92]; read-out: KI; cited from earlier work

Point of comparison: Cc1ccc(CNCC2(F)CCN(C(=O)c3cc(Br)cs3)CC2)nc1 [SC96, (4-bromothiophen-2-yl)-[4-fluoro-4-[[(5-methylpyridin-2-yl)methylamino]methyl]piperidin-1-yl]methanone], Ki 100 µM. Against it:
- COc1cccc(CCc2ccccc2OCCCCN2CCN(C)CC2)c1 [SC116, 1-[4-[2-[2-(3-methoxyphenyl)ethyl]phenoxy]butyl]-4-methylpiperazine] — higher, > 1000 µM
- COc1cccc(CCc2ccccc2OCCCCN2CCN(c3ccc(F)cc3)CC2)c1 [SC100, 1-(4-fluorophenyl)-4-[4-[2-[2-(3-methoxyphenyl)ethyl]phenoxy]butyl]piperazine] — 13-fold higher, 1320 µM
- COc1cccc(CCc2ccccc2OCCCCCN2CCN(C)CC2)c1 [SC111, 1-[5-[2-[2-(3-methoxyphenyl)ethyl]phenoxy]pentyl]-4-methylpiperazine] — higher, > 1000 µM
- COc1cccc(CCc2ccccc2OCCCCN2CCc3cc(OC)c(OC)cc3C2)c1 [SC112, 6,7-dimethoxy-2-[4-[2-[2-(3-methoxyphenyl)ethyl]phenoxy]butyl]-3,4-dihydro-1H-isoquinoline] — higher, > 1000 µM
- COc1cc2c(cc1OC)CN(C=Nc1ccc3c(c1)C1SCCSC1CC3)CC2 (stereo not drawn) [SC64, N-(2,3,4a,5,6,10b-hexahydrobenzo[f][1,4]benzodithiin-9-yl)-1-(6,7-dimethoxy-3,4-dihydro-1H-isoquinolin-2-yl)methanimine] — higher, > 300 µM
- Clc1ccc(N2CCN(CCCCNc3noc(-c4ccccc4)n3)CC2)cc1 [SC62, N-[4-[4-(4-chlorophenyl)piperazin-1-yl]butyl]-5-phenyl-1,2,4-oxadiazol-3-amine;hydrochloride] — within 1.5-fold, 79 µM
- COc1cccc(CCc2ccccc2OCCN2CCN(c3ccc(F)cc3)CC2)c1 [SC109, 1-(4-fluorophenyl)-4-[2-[2-[2-(3-methoxyphenyl)ethyl]phenoxy]ethyl]piperazine] — higher, > 1000 µM
- COc1cccc(CCc2ccccc2OCCN2CCN(c3ccccc3OC)CC2)c1 [SC120, 1-(2-methoxyphenyl)-4-[2-[2-[2-(3-methoxyphenyl)ethyl]phenoxy]ethyl]piperazine] — 4.3-fold higher, 427 µM
- COc1cccc(CCc2ccccc2OCCCCCN2CCN(c3ccc(F)cc3)CC2)c1 [SC119, 1-(4-fluorophenyl)-4-[5-[2-[2-(3-methoxyphenyl)ethyl]phenoxy]pentyl]piperazine] — 8.5-fold higher, 847 µM
- COc1cccc(CCc2ccccc2OCCCCCN2CCc3ccccc3C2)c1 [SC124, 2-[5-[2-[2-(3-methoxyphenyl)ethyl]phenoxy]pentyl]-3,4-dihydro-1H-isoquinoline] — higher, > 1000 µM
- COc1cccc(CCc2ccccc2OCCCCN2CCN(c3cccc(C(F)(F)F)c3)CC2)c1 [SC110, 1-[4-[2-[2-(3-methoxyphenyl)ethyl]phenoxy]butyl]-4-[3-(trifluoromethyl)phenyl]piperazine] — higher, > 1000 µM
- CCCNC1CCn2ncc(C(=O)OC)c2C1 (stereo not drawn) [SC94, methyl 5-(propylamino)-4,5,6,7-tetrahydropyrazolo[1,5-a]pyridine-3-carboxylate] — higher, > 100 µM
- N#CC(C#N)=Cc1ccc(CN2CCN(c3ccccc3)CC2)[nH]1 [SC71, 2-[[5-[(4-phenylpiperazin-1-yl)methyl]-1H-pyrrol-2-yl]methylidene]propanedinitrile] — higher, > 100 µM
- COc1cccc(CCc2ccccc2OCCCN2CCN(C)CC2)c1 [SC123, 1-[3-[2-[2-(3-methoxyphenyl)ethyl]phenoxy]propyl]-4-methylpiperazine] — 5.7-fold higher, 565 µM
- COc1cccc(CCc2ccccc2OCCCCCN2CCN(c3ccccc3OC)CC2)c1 [SC108, 1-(2-methoxyphenyl)-4-[5-[2-[2-(3-methoxyphenyl)ethyl]phenoxy]pentyl]piperazine] — higher, > 1000 µM

Same assay, conditions: active data set; ref ChEMBL; read-out: KI / binding affinity; cited from earlier work

In the case of O=C1CCc2ccc(OCCCCN3CCCN(c4ccc(O)c5[nH]c(=O)ccc45)CC3)cc2N1 [SC52, 8-hydroxy-5-(4-(4-((2-oxo-1,2,3,4-tetrahydroquinolin-7-yl)oxy)butyl)-1,4-diazepan-1-yl)quinolin-2(1H)-one], the Ki is listed as under 0.002 µM.

Same assay, conditions: cited from earlier work

In the case of NC(=O)C[S@@+]([O-])C(c1ccccc1)c1ccccc1 [SC72, 2-[(R)-benzhydrylsulfinyl]acetamide], the Ki is given as over 100 µM.

Same assay, conditions: read-out: KI; cited from earlier work

Point of comparison: CCCN(CCN1CCN(c2ccnc3ccccc23)CC1)[C@H]1CCc2nc(N)sc2C1 [SC57, (S)-N6-propyl-N6-(2-(4-(quinolin-4-yl)piperazin-1-yl)ethyl)-4,5,6,7-tetrahydrobenzo[d]thiazole-2,6-diamine], Ki 0.109 µM. Against it:
- COc1cccc(CCc2ccccc2OCCCN2CCc3cc(OC)c(OC)cc3C2)c1 [SC115, 6,7-dimethoxy-2-[3-[2-[2-(3-methoxyphenyl)ethyl]phenoxy]propyl]-3,4-dihydro-1H-isoquinoline] — higher, > 1000 µM
